Data published in patent EP4389751A1, “HETEROCYCLIC COMPOUNDS AND USES THEREOF” (Kumquat Biosciences Inc., priority 2021, dated 2024).

Molecular target: T1, K-Ras G12S (Homo sapiens, UniProt P01116, G12S)
T1 construct: made in house; host or cells: E. coli (e.g., BL21 (DE3))
Assay: HTRF assay of the K-Ras / SOS1 interaction
Format: biochemical
Details: IC50 (against K-Ras G12D) to IC50 (against K-Ras G12S)
From the text: This assay can be also used to assess a selective inhibition or reduction of signaling output of a mutant Ras protein relative to a wildtype, or relative to a different mutant Ras protein. For example, the equilibrium interaction of wildtype Kras or K-Ras mutant (e.g., wildtype or a mutant thereof including those mentioned in Example 6) with SOS1 (e.g., hSOS1) can be assessed as a proxy or an indication for a subject compound's ability to bind and inhibit Ras protein. HTRF assay detects from (i) a fluorescence resonance energy transfer (FRET) donor (e.g., antiGST-Europium) that is bound to GST-tagged K-Ras mutant to (ii) a FRET acceptor (e.g., anti-6His-XL665) bound to a His-tagged hSOS 1.
The assay buffer can contain ~5 mM HEPES pH 7.4, -150 mM NaCI, - 1 mM DTT, 0.05% BSA and 0.0025% (v/v) Igepal. A Ras working solution is prepared in an assay buffer containing typically a suitable amount of the protein construct (e.g., GST-tagged K-Ras mutant) and the FRET donor (e.g., antiGST-Eu(K) from Cisbio, France). A SOS1 working solution is prepared in an assay buffer containing suitable amount of the protein construct (e.g., His-hSOS1) and the FRET acceptor (e.g., anti-6His-XL665 from Cisbio, France). A suitable amount of the protein construct will depend on the range of activity or range of IC50 values being detected or under investigation. For detecting IC50 within a range of 500 nM, the protein constructs of the same range of molarity can be utilized.
A fixed volume of DMSO with or without test compound is transferred into a 384-well plate. Ras working solution is added to all wells of the test plate. SOS1 working solution is added to all wells except for those that are subsequently filled the inhibitor control solution. Upon incubation for about 10 minutes or longer, the fluorescence is measured with a M1000Pro plate reader (Tecan) using HTRF detection (excitation 337nm, emission 1 : 620nm, emission 2: 665nm). Compounds are tested in duplicates at different concentrations (for example, 10 µM, 2.5 µM, 0.63 µM, 0.16 µM, 0.04 µM, 0.01 µM test compound). The ratiometric data (i.e., emission 2 divided by emission 1) is used to calculate IC50 values against Ras using GraphPad Prism (GraphPad software). Following this general procedure, samples were tested with or without a subject compound disclosed herein including compounds exemplified in Table 3 to assess their abilities to inhibit K-Ras G12S relative to another mutant (e.g., K-Ras G12D). Signaling output measured in terms of IC50 values can be obtained, a ratio of IC50 against one mutant relative to another mutant can be calculated. For instance, a selective reduction of K-Ras G12S signaling output can be evidenced by a ratio greater than one. In particular, a selective reduction of K-Ras G12S signaling relative to K-Ras G12D signaling is evidenced as the ratio of IC50 (against K-Ras G12D) to IC50 (against K-Ras G12S) is greater than 1. […]

T1 sequence (P01116 1-188 isoform P01116-2 G12S): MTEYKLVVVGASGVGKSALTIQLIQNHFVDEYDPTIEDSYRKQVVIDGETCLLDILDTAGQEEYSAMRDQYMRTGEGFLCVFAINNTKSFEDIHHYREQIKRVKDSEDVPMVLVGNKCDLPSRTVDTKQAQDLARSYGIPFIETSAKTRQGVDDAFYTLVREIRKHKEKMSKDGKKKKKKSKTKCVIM

Compound | Ratio of IC50 KRAS G12D vs. IC50 KRAS G12S
Nc1nc2c(-c3c(Cl)cc4c(OC5CC6CN(C(=O)n7cncn7)CC65)nc(OC[C@@]56CCCN5C[C@H](F)C6)nc4c3F)ccc(F)c2s1 (stereo partly drawn) [Compound A297, (6-((7-(2-amino-7-fluorobenzo[d]thiazol-4-yl)-6-chloro-8-fluoro-2-(((2R,7aS)-2-fluorotetrahydro-1H-pyrrolizin-7a(5H)-yl)methoxy)quinazolin-4-yl)oxy)-3-azabicyclo[3.2.0]heptan-3-yl)(1H-1,2,4-triazol-1-yl)methanone] | A (A: indicates that the ratio of IC50 against KrasG12D vs. IC50 against KrasG12S is 1-fold or greater)
Nc1nc2c(-c3c(Cl)cc4c(NC5CCN(C(=O)Nc6ncccn6)CC5)nc(OC[C@@]56CCCN5C[C@H](F)C6)nc4c3F)ccc(F)c2s1 [Compound A262, 4-((7-(2-amino-7-fluorobenzo[d]thiazol-4-yl)-6-chloro-8-fluoro-2-(((2R,7aS)-2-fluorotetrahydro-1H-pyrrolizin-7a(5H)-yl)methoxy)quinazolin-4-yl)amino)-N-(pyrimidin-2-yl)piperidine-1-carboxamide] | A (A: indicates that the ratio of IC50 against KrasG12D vs. IC50 against KrasG12S is 1-fold or greater)
C[C@H](Oc1nc(OC2CCN(C(=O)Nc3nccs3)C2)c2cc(Cl)c(-c3ccc(F)c4sc(N)c(C#N)c34)c(F)c2n1)[C@@H]1CCCN1C (stereo partly drawn) [Compound A237, 3-((7-(2-amino-3-cyano-7-fluorobenzo[b]thiophen-4-yl)-6-chloro-8-fluoro-2-((S)-1-((S)-1-methylpyrrolidin-2-yl)ethoxy)quinazolin-4-yl)oxy)-N-(thiazol-2-yl)pyrrolidine-1-carboxamide] | A (A: indicates that the ratio of IC50 against KrasG12D vs. IC50 against KrasG12S is 1-fold or greater)
CN1CCC[C@H]1COc1nc(N2CC3CCC(C2)N3C(=O)n2cc(C#N)cn2)c2cc(Cl)c(-c3ccc(F)c4sc(N)nc34)c(F)c2n1 [Compound A259, 1-(3-(7-(2-amino-7-fluorobenzo[d]thiazol-4-yl)-6-chloro-8-fluoro-2-(((S)-1-methylpyrrolidin-2-yl)methoxy)quinazolin-4-yl)-3,8-diazabicyclo[3.2.1]octane-8-carbonyl)-1H-pyrazole-4-carbonitrile] | A (A: indicates that the ratio of IC50 against KrasG12D vs. IC50 against KrasG12S is 1-fold or greater)
Nc1nc2c(-c3c(Cl)cc4c(NCCN5CCN(C(=O)n6cncn6)CC5=O)nc(OC[C@@]56CCCN5C[C@H](F)C6)nc4c3F)ccc(F)c2s1 [Compound A261, 1-(2-((7-(2-amino-7-fluorobenzo[d]thiazol-4-yl)-6-chloro-8-fluoro-2-(((2R,7aS)-2-fluorotetrahydro-1H-pyrrolizin-7a(5H)-yl)methoxy)quinazolin-4-yl)amino)ethyl)-4-(1H-1,2,4-triazole-1-carbonyl)piperazin-2-one] | A (A: indicates that the ratio of IC50 against KrasG12D vs. IC50 against KrasG12S is 1-fold or greater)
C[C@H](Oc1nc(N2CCN(C(=O)Nc3nccs3)CC(O)C2)c2cc(Cl)c(-c3ccc(F)c4sc(N)c(C#N)c34)c(F)c2n1)[C@@H]1CCCN1C (stereo partly drawn) [Compound A118, 4-(7-(2-amino-3-cyano-7-fluorobenzo[b]thiophen-4-yl)-6-chloro-8-fluoro-2-((S)-1-((S)-1-methylpyrrolidin-2-yl)ethoxy)quinazolin-4-yl)-6-hydroxy-N-(thiazol-2-yl)-1,4-diazepane-1-carboxamide] | A (A: indicates that the ratio of IC50 against KrasG12D vs. IC50 against KrasG12S is 1-fold or greater)
N#Cc1nccn1C(=O)N1CCC(Nc2nc(OC[C@@]34CCCN3C[C@H](F)C4)nc3c(F)c(-c4ccc(F)c5sc(N)nc45)c(Cl)cc23)CC1 [Compound A155, 1-(4-((7-(2-amino-7-fluorobenzo[d]thiazol-4-yl)-6-chloro-8-fluoro-2-(((2R,7aS)-2-fluorotetrahydro-1H-pyrrolizin-7a(5H)-yl)methoxy)quinazolin-4-yl)amino)piperidine-1-carbonyl)-1H-imidazole-2-carbonitrile] | A (A: indicates that the ratio of IC50 against KrasG12D vs. IC50 against KrasG12S is 1-fold or greater)
N#Cc1c(N)sc2c(F)ccc(-c3c(Cl)cc4c(N5CCN(C(=O)Nc6nccs6)CC(O)C5)nc(OC[C@@]56CCCN5C[C@H](F)C6)nc4c3F)c12 (stereo partly drawn) [Compound A164, 4-(7-(2-amino-3-cyano-7-fluorobenzo[b]thiophen-4-yl)-6-chloro-8-fluoro-2-(((2R,7aS)-2-fluorotetrahydro-1H-pyrrolizin-7a(5H)-yl)methoxy)quinazolin-4-yl)-6-hydroxy-N-(thiazol-2-yl)-1,4-diazepane-1-carboxamide] | A (A: indicates that the ratio of IC50 against KrasG12D vs. IC50 against KrasG12S is 1-fold or greater)
N#Cc1ccn(C(=O)N2CCC(Nc3nc(OC[C@@]45CCCN4C[C@H](F)C5)nc4c(F)c(-c5ccc(F)c6sc(N)nc56)c(Cl)cc34)CC2)n1 [Compound A173, 1-(4-((7-(2-amino-7-fluorobenzo[d]thiazol-4-yl)-6-chloro-8-fluoro-2-(((2R,7aS)-2-fluorotetrahydro-1H-pyrrolizin-7a(5H)-yl)methoxy)quinazolin-4-yl)amino)piperidine-1-carbonyl)-1H-pyrazole-3-carbonitrile] | A (A: indicates that the ratio of IC50 against KrasG12D vs. IC50 against KrasG12S is 1-fold or greater)
CO[C@@H]1CN(C)C[C@H]1Oc1nc(N2CC3CCC(C2)N3C(=O)n2cc(C#N)cn2)c2cc(Cl)c(-c3ccc(F)c4sc(N)nc34)c(F)c2n1 [Compound A248, 1-(3-(7-(2-amino-7-fluorobenzo[d]thiazol-4-yl)-6-chloro-8-fluoro-2-(((3R,4R)-4-methoxy-1-methylpyrrolidin-3-yl)oxy)quinazolin-4-yl)-3,8-diazabicyclo[3.2.1]octane-8-carbonyl)-1H-pyrazole-4-carbonitrile] | A (A: indicates that the ratio of IC50 against KrasG12D vs. IC50 against KrasG12S is 1-fold or greater)
Nc1nc2c(-c3c(Cl)cc4c(N5C[C@H]6CC[C@@H](C5)N6C(=O)n5ccc(F)n5)nc(OC[C@@]56CCCN5C[C@H](F)C6)nc4c3F)ccc(F)c2s1 [Compound A214, ((1R,5S)-3-(7-(2-amino-7-fluorobenzo[d]thiazol-4-yl)-6-chloro-8-fluoro-2-(((2R,7aS)-2-fluorotetrahydro-1H-pyrrolizin-7a(5H)-yl)methoxy)quinazolin-4-yl)-3,8-diazabicyclo[3.2.1]octan-8-yl)(3-fluoro-1H-pyrazol-1-yl)methanone] | A (A: indicates that the ratio of IC50 against KrasG12D vs. IC50 against KrasG12S is 1-fold or greater)
N#Cc1cccn1C(=O)N1CC2CCC(C1)N2c1nc(OC[C@@]23CCCN2C[C@H](F)C3)nc2c(F)c(-c3ccc(F)c4sc(N)nc34)c(Cl)cc12 [Compound A172, 1-(8-(7-(2-amino-7-fluorobenzo[d]thiazol-4-yl)-6-chloro-8-fluoro-2-(((2R,7aS)-2-fluorotetrahydro-1H-pyrrolizin-7a(5H)-yl)methoxy)quinazolin-4-yl)-3,8-diazabicyclo[3.2. 1]octane-3-carbonyl)-1H-pyrrole-2-carbonitrile] | A (A: indicates that the ratio of IC50 against KrasG12D vs. IC50 against KrasG12S is 1-fold or greater)
Nc1nc2c(-c3c(Cl)cc4c(NC5C6CN(C(=O)n7cncn7)CC65)nc(OC[C@@]56CCCN5C[C@H](F)C6)nc4c3F)ccc(F)c2s1 (stereo partly drawn) [Compound A299, (6-((7-(2-amino-7-fluorobenzo[d]thiazol-4-yl)-6-chloro-8-fluoro-2-(((2R,7aS)-2-fluorotetrahydro-1H-pyrrolizin-7a(5H)-yl)methoxy)quinazolin-4-yl)amino)-3-azabicyclo[3.1.0]hexan-3-yl)(1H-1,2,4-triazol-1-yl)methanone] | A (A: indicates that the ratio of IC50 against KrasG12D vs. IC50 against KrasG12S is 1-fold or greater)
